# In ChEMBL document CHEMBL1275340, “BACE1 inhibitory activities of enantiomerically pure, variously substituted N-(3-(4-benzhydrylpiperazin-1-yl)-2-hydroxypropyl) arylsulfonamides” (Bioorg Med Chem, 2010):
# Target: Beta-secretase 1 (Homo sapiens, UniProt P56817)
# Test: Inhibition of BACE1 by fluorescence assay
# Sequence of Beta-secretase 1 (P56817 whole entry): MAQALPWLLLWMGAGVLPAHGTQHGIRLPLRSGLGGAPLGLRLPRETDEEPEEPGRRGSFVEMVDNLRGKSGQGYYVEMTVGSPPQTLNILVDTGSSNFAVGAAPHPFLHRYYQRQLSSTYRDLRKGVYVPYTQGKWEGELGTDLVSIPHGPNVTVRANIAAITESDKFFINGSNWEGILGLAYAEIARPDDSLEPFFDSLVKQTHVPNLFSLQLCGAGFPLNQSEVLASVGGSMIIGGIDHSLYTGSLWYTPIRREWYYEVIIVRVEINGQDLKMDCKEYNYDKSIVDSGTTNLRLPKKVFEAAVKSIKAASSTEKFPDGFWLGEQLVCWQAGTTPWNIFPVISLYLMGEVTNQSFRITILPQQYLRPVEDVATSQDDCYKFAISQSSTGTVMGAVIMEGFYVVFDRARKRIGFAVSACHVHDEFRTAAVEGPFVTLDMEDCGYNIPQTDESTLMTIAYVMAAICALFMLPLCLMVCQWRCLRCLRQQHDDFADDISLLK
row,SMILES,IC50
1,O=S(=O)(c1ccc(Cl)cc1)N(CCc1ccccc1)C[C@H](O)CN1CCN(C(c2ccccc2)c2ccccc2)CC1,2.3 µM
2,O=S(=O)(c1ccc(Cl)cc1)N(CCc1ccccc1)C[C@@H](O)CN1CCN(C(c2ccccc2)c2ccccc2)CC1,1.9 µM
3,O=S(=O)(c1ccc(Cl)c(Cl)c1)N(CC1CC1)C[C@H](O)CN1CCN(C(c2ccccc2)c2ccccc2)CC1,5.4 µM
4,O=S(=O)(c1ccc(Cl)c(Cl)c1)N(CC1CC1)C[C@@H](O)CN1CCN(C(c2ccccc2)c2ccccc2)CC1,4.7 µM
5,O=S(=O)(c1ccc(Cl)cc1)N(Cc1ccccc1)C[C@H](O)CN1CCN(C(c2ccccc2)c2ccccc2)CC1,6.3 µM
6,O=S(=O)(c1ccc(Cl)cc1)N(Cc1ccccc1)C[C@@H](O)CN1CCN(C(c2ccccc2)c2ccccc2)CC1,5.4 µM
7,O=S(=O)(c1ccccc1)N(CCc1ccccc1)C[C@H](O)CN1CCN(C(c2ccccc2)c2ccccc2)CC1,5.1 µM
8,O=S(=O)(c1ccccc1)N(CCc1ccccc1)C[C@@H](O)CN1CCN(C(c2ccccc2)c2ccccc2)CC1,6.9 µM
